From patent US10138254B2, “Bicyclic compounds as pest control agents” (BAYER CROPSCIENCE AKTIENGESELLSCHAFT, priority 2014, dated 2018)
Where two headings read alike, the source gives them in different places.

What was measured:
[1] = tested on: green peach aphid (Myzus persicae); assay: Myzus persicae spray test (bell pepper plants); format: in vivo; conditions: application rate 4 ppm, after 6 days, 100% = all aphids killed
Protocol: Myzus persicae—Spray Test Solvent: 7 parts by weight of dimethylformamide Emulsifier: alkylaryl polyglycol ether To produce a suitable active ingredient formulation, 1 part by weight of active ingredient is dissolved with the specified parts by weight of solvent and made up with water containing an emulsifier concentration of 1000 ppm until the desired concentration is attained. To produce further test concentrations, the formulation is diluted with emulsifier-containing water. If the addition of ammonium salts or/and penetrants is required, these are each added in a concentration of 1000 ppm to the formulation solution. Bell pepper plants (Capsicum annuum) severely infested with the green peach aphid (Myzus persicae) are treated by spraying with the active ingredient formulation in the desired concentration. After 6 days, the kill in % is determined. 100% means that all of the aphids have been killed; 0% means that none of the aphids have been killed.

[2] = log P by HPLC on reversed-phase (C18) columns, OECD Guideline 117; format: physicochemical; conditions: reversed-phase (C18) HPLC column
Protocol: The log P values were determined in accordance with OECD Guideline 117 (EC Directive 92/69/EEC) by HPLC (high-performance liquid chromatography) using reversed-phase (RP) columns (C18), by the following methods: [a] The LC-MS determination in the acidic range is carried out at pH 2.7 with 0.1% aqueous formic acid and acetonitrile (contains 0.1% formic acid) as eluents; linear gradient from 10% acetonitrile to 95% acetonitrile. [b] LC-MS determination in the neutral range is effected at pH 7.8 with 0.001 molar aqueous ammonium hydrogencarbonate solution and acetonitrile as eluents; linear gradient from 10% acetonitrile to 95% acetonitrile. Calibration is carried out using unbranched alkan-2-ones (having 3 to 16 carbon atoms) with known log P values (log P values determined on the basis of the retention times by linear interpolation between two successive alkanones).

[3] = tested on: larvae of the mustard beetle (Phaedon cochleariae); assay: Phaedon cochleariae spray test (Chinese cabbage leaf discs); format: in vivo; conditions: application rate 500 g/ha, after 7 days, 100% = all beetle larvae killed
Protocol: Phaedon cochleariae—Spray Test
Solvent: 78.0 parts by weight of acetone • • 1.5 parts by weight of dimethylformamide
Emulsifier: alkylaryl polyglycol ether
To produce a suitable active ingredient formulation, 1 part by weight of active ingredient is dissolved with the specified parts by weight of solvent and made up with water containing an emulsifier concentration of 1000 ppm until the desired concentration is attained. To produce further test concentrations, the formulation is diluted with emulsifier-containing water.
After 7 days, the efficacy in % is determined. 100% means that all the beetle larvae have been killed; 0% means that no beetle larvae have been killed.

[4] = tested on: green peach aphid (Myzus persicae); assay: Myzus persicae spray test (Chinese cabbage leaf discs); format: in vivo; conditions: Myzus persicae, foliar, 144 h, application rate 500 g/ha, after 6 days, 100% = all aphids killed, read-out: efficacy
Protocol: Myzus persicae—Spray Test Solvent: 78 parts by weight of acetone • • 1.5 parts by weight of dimethylformamide Emulsifier: alkylaryl polyglycol ether To produce a suitable active ingredient formulation, 1 part by weight of active ingredient is dissolved with the specified parts by weight of solvent and made up with water containing an emulsifier concentration of 1000 ppm until the desired concentration is attained. To produce further test concentrations, the formulation is diluted with emulsifier-containing water. Discs of Chinese cabbage leaves (Brassica pekinensis) infested by all stages of the green peach aphid (Myzus persicae) are sprayed with an active ingredient formulation of the desired concentration. After 6 days, the efficacy in % is determined. 100% means that all the aphids have been killed; 0% means that no aphids have been killed.

[5] = acidic range, pH 2.7, 0.1% aqueous formic acid and acetonitrile, read-out: LogP[a]
[6] = neutral range, pH 7.8, 0.001 molar aqueous ammonium hydrogencarbonate and acetonitrile, read-out: logP[b]

chromatographic logP [2, 5] | chromatographic logP [2, 6] | Structure (SMILES) | efficacy (kill) [1] [%] | efficacy [3] [%] | pest or weed control at 500 g/ha [4] [%]
1.91 | 1.86 | Cc1cc(C)c([S+]([O-])CC(F)(F)F)cc1-c1cnc2nc(-c3ccc[n+]([O-])c3)sc2c1 (stereo not shown) [Example 21] | 100 |  | 
1.29 | 1.36 | Cn1c(=O)cnn(-c2cnc3nc(-c4cccnc4)sc3c2)c1=O [Example 39, 4-Methyl-2-[2-(pyridin-3-yl)[1,3]thiazolo[4,5-b]pyridin-6-yl]-1,2,4-triazine-3,5(2H,4H)-dione] |  | 83 | 90
